Molecules are shown by their SMILES. Structures can show the parent of a compound that is named as a salt.

The first assay deals with T1, alpha 2 receptor (Rattus norvegicus, UniProt P22909).
T1 construct: rat cerebral cortices; from tissue; host or cells: rat cerebral cortices
T1 sequence (P22909 1-465): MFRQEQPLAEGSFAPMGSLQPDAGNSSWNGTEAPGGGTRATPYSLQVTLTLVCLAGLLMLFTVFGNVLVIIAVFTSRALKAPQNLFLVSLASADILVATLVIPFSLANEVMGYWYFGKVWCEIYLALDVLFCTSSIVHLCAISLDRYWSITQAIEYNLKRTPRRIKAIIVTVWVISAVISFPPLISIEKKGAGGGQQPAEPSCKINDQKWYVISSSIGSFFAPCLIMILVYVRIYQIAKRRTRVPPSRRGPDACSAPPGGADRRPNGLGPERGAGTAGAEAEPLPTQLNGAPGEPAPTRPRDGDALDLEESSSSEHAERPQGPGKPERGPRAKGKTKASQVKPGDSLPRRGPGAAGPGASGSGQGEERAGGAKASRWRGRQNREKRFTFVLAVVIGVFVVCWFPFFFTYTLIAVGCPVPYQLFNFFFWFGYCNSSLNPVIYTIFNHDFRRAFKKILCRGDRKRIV
As to the kind of experiment: Radioligand binding, [3H]rauwolscine, rat cerebral cortices.
Conditions: not given
How it is done:
(§1) The compounds were assessed for alpha-adrenergic receptor subtype selectivity by use of radioligand binding techniques as described previously (DeBernardis et. al. J. Med. Chem. 28, 1398 (1985)).
`COc1ccc2c(c1)CCCC2CN(C)CCC1CCCC1` (stereo not shown) [Example 6f, 1-((N-methylamino)methyl-N-(2-(cyclopentyl)ethyl))-6-methoxy tetralin hydrochloride] gave a Ki of 6.5 nM.

The same assay, now with this note: read-out: Ki alpha-2.
`COc1ccc2c(c1)CCCC2CN(C)CCc1cccn1C` (stereo not shown) [Example 12, 1-((N-Methylamino)methyl-N-(2-(N-methyl-2-pyrrolyl)-ethyl))-6-methoxy tetralin fumarate]: the Ki was 5 nM.

`CN(CCc1cccs1)CC1CCCc2c1ccc(O)c2I` (stereo not shown) [Example 115, 1-((N-Methylamino)methyl-N-(2-(2-thienyl)ethyl))-5-iodo-6-hydroxy tetralin hydrochloride]: the Ki stood at 3 nM.

In the case of `COc1ccc2c(c1)CCCC2CN(C)CCc1cccc(F)c1` (stereo not shown) [Example 6b, 1-((N-methylamino)methyl-N-(2-(m-fluorophenyl)ethyl))-6-methoxy tetralin hydrochloride], the Ki turned out to be 5 nM.

As for `COc1ccc2c(c1)CCCC2CN(C)CCc1cccc(O)c1` (stereo not shown) [Example 83, 1-((N-Methylamino)methyl-N-(2-(m-hydroxyphenyl)ethyl))-6-methoxy tetralin hydrochloride], the Ki stood at 8 nM.

For the compound `COc1ccc2c(c1)CCC2CN(C)CCc1cccs1` (stereo not shown) [Example 37, 1-((N-Methylamino)methyl-N-(2-(2-thienyl)ethyl))-5-methoxy indane hydrochloride], the inhibition constant (Ki) stood at 3.7 nM.

With `CCN(CCc1cccc(F)c1)CC1CCCc2cc(OC)ccc21` (stereo not shown) [Example 42, 1-((N-Ethylamino)methyl-N-(2-(m-fluorophenyl)ethyl))-6-methoxy tetralin hydrochloride], the Ki came to 6.6 nM.

As for `COc1ccc2c(c1)CCCC2CN(C)CCC1CCCS1` (stereo not shown) [Example 6h, 1-((N-methylamino)methyl-N-(2-(2-tetrahydrothienyl)ethyl)) 6-methoxy tetralin hydrochloride], the Ki was 3.5 nM.

With `CCCN(CCc1cccs1)CC1CCCc2cc(OC)ccc21` (stereo not shown) [Example 58, 1-((N-Propylamino)methyl)-N-(2-(2-thienyl)ethyl))-6-methoxy tetralin hydrochloride], the Ki is 18 nM.

For the compound `CN(CCc1ccccc1)CC1CCCc2ccccc21` (stereo not shown) [Example 88, 1-((N-Methylamino)methyl-N-(2-phenethyl)) tetralin hydrochloride], the inhibition constant (Ki) came to 2 nM.

In the case of `CN(CCc1cccs1)CC1CCCc2ccccc21` (stereo not shown) [Example 22, 1-((N-Methylamino)methyl-N-(2-(2-thienyl)ethyl)) tetralin hydrochloride], the inhibitory constant (Ki) was determined as 1.3 nM.

For the compound `CCN(CCc1ccco1)CC1CCCc2cc(OC)ccc21` (stereo not shown) [Example 43, 1-((N-Ethylamino)methyl-N-(2-(2-furyl)ethyl))-6-methoxy tetralin hydrochloride], the Ki stood at 6 nM.

Take `CN(CCc1cccs1)CC1CCCc2cc(O)ccc21` (stereo not shown) [Example 7, 1-((N-Methylamino)methyl-N-(2-(2-thienyl)ethyl))-6-hydroxy tetralin hydrochloride]: the inhibition constant (Ki) worked out at 1.6 nM.

With `CCN(CCc1cccs1)CC1CCCc2c1ccc1c2OCCO1` (stereo not shown) [Example 168, 1-((N-Ethylamino)methyl-N-(2-(2-thienyl)ethyl))-5,6-ethylenedioxy tetralin hydrochloride], the inhibitory constant (Ki) worked out at 6.6 nM.

`Cc1cc(O)c(O)c2c1C(CN(C)CCc1cccc(F)c1)CCC2` (stereo not shown) [Example 34, 1-((N-Methylamino)methyl-N-(2-(m-fluorophenyl)ethyl))-5,6-dihydroxy-8-methyl tetralin hydrobromide]: the Ki was 2.6 nM.

As for `COc1cc2c(cc1F)C(CN(C)CCc1ccco1)CCC2` (stereo not shown) [Example 141, 1-((N-methylamino)methyl-N-(2-(2-furyl)ethyl))-6-methoxy-7-fluoro tetralin methanesulfonate], the Ki was determined as 4.8 nM.

Consider `CN(CCc1cccs1)CC1CCCc2c1ccc1c2OCCO1` (stereo not shown) [Example 30, 1-((N-Methylamino)methyl-N-(2-(2-thienyl)ethyl))-5,6-ethylenedioxy tetralin hydrochloride], for which the Ki was 4 nM.

Consider `CN(CCc1cccc(F)c1)CC1CCCc2c1ccc(O)c2O` (stereo not shown) [Example 85, 1-((N-Methylamino)methyl-N-(2-(m-fluorophenyl)ethyl))-5,6-dihydroxy tetralin hydrochloride], for which the Ki turned out to be 1.5 nM.

Turning to `CN(CCc1cccc(N)c1)CC1CCCc2cc(O)ccc21` (stereo not shown) [Example 68, 1-((N-Methylamino)methyl-N-(2-(m-aminophenyl)ethyl))-6-hydroxy tetralin dihydrobromide], the Ki was found to be 6 nM.

On to `COc1ccc2c(c1)CCCC2CN(C)CCc1ccsc1` (stereo not shown) [Example 6d, 1-((N-methylamino)methyl-N-(2-(3-thienyl)ethyl))-6-methoxy tetralin hydrochloride], for which the Ki turned out to be 1.5 nM.

In the case of `CCN(CCc1cccs1)CC1CCCc2cc(OC)ccc21` (stereo not shown) [Example 41, 1-((N-Ethylamino)methyl-N-(2-(2-thienyl)ethyl))-6-methoxy tetralin hydrochloride], the inhibition constant Ki worked out at 2.9 nM.

For `c1csc(C2CCN(CC3CCCc4c3ccc3c4OCO3)C2)c1` (stereo not shown) [Example 144, 5,6-Methylenedioxy-1-(3-(2-thienyl)pyrrolidino-1-methyl) tetralin methanesulfonate], the Ki was 1.2 nM.

`CN(CCc1cccc(O)c1)CC1CCCc2cc(O)ccc21` (stereo not shown) [Example 82, 1-((N-Methylamino)methyl-N-(2-(m-hydroxyphenyl)ethyl))-6-hydroxy tetralin hydrochloride]: the Ki came to 4 nM.

`COc1ccc2c(c1)CCCC2CN(C)CCc1cccc(N)c1` (stereo not shown) [Example 67, 1-((N-Methylamino)methyl-N-(2-(m-aminophenyl)ethyl))-6-methoxy tetralin dihydrochloride]: the inhibition constant Ki amounted to 6 nM.

As for `COc1ccc2c(c1)CCCC2CN(C)CCc1cccs1` (stereo not shown) [Example 5, 1-((N-Methylamino)methyl-N-(2-(2-thienyl)ethyl))-6-methoxy tetralin methanesulfonate], the inhibition constant Ki turned out to be 0.8 nM.

On to `CN(CCc1cccc(F)c1)CC1CCCc2c1ccc1c2OCO1` (stereo not shown) [Example 166, 1-((N-Methylamino)methyl-N-(2-m-fluorophenethyl))-5,6-methylenedioxy tetralin methanesulfonate], for which the inhibition constant Ki was 4.5 nM.

With `CN(CCc1cccs1)CC1CCCc2c1ccc1c2OCO1` (stereo not shown) [Example 23, 1-((N-Methylamino)methyl-N-(2-(2-thienyl)ethyl))-5,6-methylenedioxy tetralin hydrochloride], the inhibitory constant (Ki) is 1.7 nM.

For `CN(CCc1cccc(F)c1)CC1CCCc2ccccc21` (stereo not shown) [Example 70, 1-((N-Methylamino)methyl-N-(2-(m-fluorophenyl)ethyl))-tetralin hydrochloride], the Ki was 5 nM.

On to `CCN(CCc1ccsc1)CC1CCCc2cc(OC)ccc21` (stereo not shown) [Example 44, 1-((N-Ethylamino)methyl-N-(2-(3-thienyl)ethyl))-6-methoxy tetralin hydrochloride], for which the inhibition constant Ki came to 5.6 nM.

In the case of `COc1ccc2c(c1)C(CN(C)CCc1cccs1)CCC2` (stereo not shown) [Example 27, 1-((N-Methylamino)methyl-N-(2-(2-thienyl)ethyl))-7-methoxy tetralin hydrochloride], the inhibition constant (Ki) amounted to 2 nM.

For `Fc1ccccc1C1CCN(CC2CCCc3c2ccc2c3OCO2)C1` (stereo not shown) [Example 176a, 5.6-Methylenedioxy-1-(3-(o-fluorophenyl)pyrrolidino-1-methyl) tetralin methanesulfonate], the Ki turned out to be 0.6 nM.

In the case of `CN(CCc1cccs1)CC1CCCc2c1ccc(O)c2O` (stereo not shown) [Example 87, 1-((N-Methylamino)methyl-N-(2-(2-thienyl)ethyl))-5,6-dihydroxy tetralin hydrochloride], the inhibition constant Ki came to 1.6 nM.

As for `COc1cc2c(cc1C)C(CN(C)CCc1ccco1)CCC2` (stereo not shown) [Example 128, 1-((N-Methylamino)methyl-N-(2-(2-furyl)ethyl))-methoxy-7-methyl tetralin hydrochloride], the Ki is 8 nM.

For `COc1ccc2c(c1OC)CCCC2CN(C)CCc1cccs1` (stereo not shown) [Example 86, 1-((N-Methylamino)methyl-N-(2-(2-thienyl)ethyl))-5,6-dimethoxy tetralin hydrochloride], the Ki was 3 nM.

Turning to `COc1cc2c(c(OC)c1)C(CN(C)CCc1cccs1)CCC2` (stereo not shown) [Example 26, 1-((N-Methylamino)methyl-N-(2-(2-thienyl)ethyl))-6,8-dimethoxy tetralin hydrochloride], the inhibition constant (Ki) turned out to be 0.6 nM.

As to `CCN(CCc1cccs1)CC1CCCc2c1ccc1c2OCO1` (stereo not shown) [Example 164, 1-(N-Ethylamino)methyl-N-(2-(2-thienyl)ethyl))-5,6-methylenedioxy tetralin hydrochloride], the Ki was found to be 3.7 nM.

As to `CN(CCc1cccs1)CC1CCCc2cc(Cl)ccc21` (stereo not shown) [Example 49, 1-((N-Methylamino)methyl-N-(2-(2-thienyl)ethyl))-6-chloro tetralin hydrochloride], the Ki was found to be 10 nM.

Turning to `CCN(CCc1cccc(F)c1)CC1CCCc2c1ccc1c2OCO1` (stereo not shown) [Example 165, 1-((N-Ethylamino)methyl-N-(2-m-fluorophenethyl))-5,6-methylenedioxy tetralin hydrochloride], the Ki amounted to 3.5 nM.

As to `CN(CCc1ccccc1)CC1CCCc2cc(N)ccc21` (stereo not shown) [Example 114, 1-((N-Methylaminomethyl-N-(2-phenylethyl))-6-aminotetralindihydrochloride], the inhibition constant Ki worked out at 5.7 nM.

Another assay deals with alpha 2 receptor. Described as above. The note with it: Ki alpha 1/Ki alpha-2. Here is the method:
as §1
On to `COc1ccc2c(c1)CCCC2CN(C)CCC1CCCS1` (stereo not shown) [Example 6h, 1-((N-methylamino)methyl-N-(2-(2-tetrahydrothienyl)ethyl)) 6-methoxy tetralin hydrochloride], for which the “alpha-2 - Selectivity Ki alpha 1/Ki alpha-2” value stood at 430.

Source of the values: patent publication US5128362A, “1-aminomethyl-1,2,3,4-tetrahydronaphthalenes” (Abbott Laboratories, priority 1990, dated 1992).
